Test systems include A549; TK-10; EKVX; 786-0; OVCAR-8; HOP-92; SNB-19; UACC-257; HT-29; OVCAR-3; MOLT-4; SW-620; NCI-H23; SNB-75; SK-MEL-2; OVCAR-4; RPMI-8226.
What all share (assay): NCI tumour cell line growth inhibition, 48 h

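Cells were grown in 96-well plates and exposed to each compound for 48 hours at five concentrations; endpoints were interpolated linearly between bracketing concentrations, or set to the highest concentration if not reached. The concentration for 50% growth inhibition is given as GI50.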 Calls of active or inactive are those of the source. No stated cut-off is given here; in the data, active = GI50 up to about 1.1 µM and inactive = higher.

On to `c1ccc2c(c1)CCc1c(-c3n[nH]c4c3CCc3ccccc3-4)n[nH]c1-2`, for which the GI50 with A549, with TK-10, with EKVX, in the experiment on 786-0, in the experiment with OVCAR-8 and in the experiment on HOP-92 was > 100 µM (inactive) throughout. In addition, the GI50 in the experiment on SNB-19 was > 100 µM (inactive); in the experiment with UACC-257 it was > 100 µM (inactive); in the experiment with HT-29 it was 76.7 µM (inactive); in the experiment on OVCAR-3, > 100 µM (inactive); in the experiment on MOLT-4, 87.9 µM (inactive); with SW-620, > 100 µM (inactive). Moreover, the GI50 in the experiment on NCI-H23 was > 100 µM (inactive); with SNB-75, 56.5 µM (inactive); with SK-MEL-2, > 100 µM (inactive).

For the molecule `CCCCCCCCCCCC(=O)c1c(O)cccc1O`, the GI50 was 20.4 µM (inactive) in the experiment on OVCAR-4; 18 µM (inactive) in the experiment on A549; 33 µM (inactive) with TK-10; 19.1 µM (inactive) in the experiment with EKVX; 18.1 µM (inactive) with 786-0; 17.9 µM (inactive) in the experiment on OVCAR-8. The GI50 in the experiment with HOP-92 was 18.1 µM (inactive); in the experiment on SNB-19, 16.5 µM (inactive); in the experiment with UACC-257 it was 16.7 µM (inactive); with HT-29, 22.3 µM (inactive); with OVCAR-3 it was 17.5 µM (inactive); with MOLT-4, 20.4 µM (inactive). In addition, the GI50 is 19.1 µM (inactive) in the experiment on SW-620; 17.6 µM (inactive) in the experiment on NCI-H23; 26.7 µM (inactive) in the experiment on RPMI-8226; 16.8 µM (inactive) in the experiment on SNB-75; 15.4 µM (inactive) in the experiment on SK-MEL-2.

Turning to `O=C(/C=C/c1ccc[nH]1)c1ccccc1`, the GI50 in the experiment on OVCAR-4 is > 100 µM (inactive); with A549, > 100 µM (inactive); with TK-10, > 100 µM (inactive); with 786-0, > 100 µM (inactive); with OVCAR-8 it was > 100 µM (inactive); in the experiment with HOP-92, 56.2 µM (inactive). Besides, the GI50 with SNB-19, with UACC-257, in the experiment on HT-29, in the experiment on OVCAR-3, in the experiment with MOLT-4 and with SW-620 was > 100 µM (inactive) throughout. Besides, the GI50 in the experiment with NCI-H23 was > 100 µM (inactive); with RPMI-8226, 95.9 µM (inactive); with SNB-75, 29.6 µM (inactive); with SK-MEL-2, > 100 µM (inactive).

With `CCOC(=O)C1=C(Nc2cccc3ccccc23)OCC1=O`, the GI50 in the experiment with OVCAR-4, in the experiment with A549, in the experiment with EKVX, with 786-0, in the experiment on OVCAR-8 and with HOP-92 was > 100 µM (inactive) in each case. For the same molecule, the GI50 with SNB-19, in the experiment on UACC-257, in the experiment with HT-29, with OVCAR-3, in the experiment on MOLT-4 and in the experiment with SW-620 was > 100 µM (inactive) each time. Also, the GI50 with NCI-H23, in the experiment with RPMI-8226, with SNB-75 and in the experiment on SK-MEL-2 was > 100 µM (inactive) in each case.

As to `COc1nc(OC)c2c(=O)oc(-c3ccccc3)cc2n1`, the GI50 with OVCAR-4, in the experiment on A549, in the experiment on TK-10, in the experiment with EKVX, in the experiment on 786-0 and in the experiment on OVCAR-8 was > 100 µM (inactive) in each case. Also, the GI50 with HOP-92 is > 100 µM (inactive); in the experiment with SNB-19 it was > 100 µM (inactive); in the experiment on UACC-257, > 100 µM (inactive); with HT-29, > 100 µM (inactive); in the experiment with OVCAR-3, > 10 µM (inactive); in the experiment with MOLT-4 it was > 100 µM (inactive). Further, the GI50 was > 100 µM (inactive) in the experiment on SW-620; > 100 µM (inactive) with NCI-H23; > 100 µM (inactive) with RPMI-8226; 53.5 µM (inactive) in the experiment with SNB-75; > 100 µM (inactive) with SK-MEL-2.

For the molecule `CN(C)CCNC(=O)c1cccc2ccc(-c3ccncc3)nc12`, the GI50 was 2.79 µM (inactive) with OVCAR-4; 0.817 µM (active) in the experiment on A549; 2.21 µM (inactive) with TK-10; 2.47 µM (inactive) with EKVX; 2.72 µM (inactive) in the experiment on 786-0; 2.26 µM (inactive) in the experiment with OVCAR-8. The GI50 in the experiment with HOP-92 was 2.16 µM (inactive); in the experiment with SNB-19, 2.81 µM (inactive); with UACC-257 it was 2.06 µM (inactive); in the experiment with HT-29, 2.54 µM (inactive); with OVCAR-3 it was 2.78 µM (inactive); with MOLT-4, 0.306 µM (active). The GI50 was 1.33 µM (inactive) in the experiment on SW-620, 1.8 µM (inactive) in the experiment with NCI-H23, 3.2 µM (inactive) in the experiment with SNB-75 and 4.02 µM (inactive) in the experiment with SK-MEL-2.

On to `O=C1C=CC(=O)c2nc3c(cc21)CCC3`, for which the GI50 in the experiment on OVCAR-4 is 15.7 µM (inactive); in the experiment with A549, 87.3 µM (inactive); in the experiment on TK-10, 18.5 µM (inactive); in the experiment with 786-0, 18 µM (inactive); with OVCAR-8, 15.2 µM (inactive); in the experiment with HOP-92 it was 19.5 µM (inactive). Further, the GI50 in the experiment on SNB-19 was > 100 µM (inactive); with UACC-257, 19.6 µM (inactive); with HT-29, 45.9 µM (inactive); with OVCAR-3, 17.5 µM (inactive); in the experiment on MOLT-4, 11.6 µM (inactive); in the experiment with SW-620, 16.6 µM (inactive). Further, the GI50 in the experiment with NCI-H23 is 25 µM (inactive); with SNB-75, 67.5 µM (inactive).

With `CCC1c2cc3n(c(=O)c2COC1O)Cc1c-3nc2ccccc2c1Cl` (stereo not given), the GI50 was > 65.5 µM (inactive) in the experiment with OVCAR-4; 28.5 µM (inactive) in the experiment with A549; > 100 µM (inactive) in the experiment on TK-10; 66.1 µM (inactive) in the experiment on EKVX; 25.7 µM (inactive) in the experiment with 786-0; 55.3 µM (inactive) in the experiment on OVCAR-8. For the same molecule, the GI50 with HOP-92 is > 100 µM (inactive); with SNB-19 it was 30.3 µM (inactive); with UACC-257, > 100 µM (inactive); in the experiment on HT-29 it was 70.1 µM (inactive); in the experiment on OVCAR-3 it was > 100 µM (inactive); in the experiment with MOLT-4, 3.28 µM (inactive). Further, the GI50 in the experiment with SW-620 is > 100 µM (inactive); with NCI-H23, 28.7 µM (inactive); in the experiment with RPMI-8226 it was > 29.3 µM (inactive); in the experiment with SNB-75 it was 20.5 µM (inactive); in the experiment with SK-MEL-2 it was > 100 µM (inactive).

For `CCOC(=O)c1cc(/C=C/C(C)=C/C(=O)OC)oc1C`, the GI50 in the experiment on OVCAR-4, with A549, in the experiment with TK-10, in the experiment with EKVX, in the experiment on 786-0 and in the experiment on OVCAR-8 was > 100 µM (inactive) in each case. For the same molecule, the GI50 in the experiment on HOP-92, in the experiment on SNB-19, in the experiment on UACC-257, in the experiment with HT-29, in the experiment on OVCAR-3 and in the experiment on MOLT-4 was > 100 µM (inactive) in each case. Besides, the GI50 in the experiment on SW-620, with NCI-H23, in the experiment with RPMI-8226, with SNB-75 and with SK-MEL-2 was > 100 µM (inactive) in each case.

As to `COc1cc(/C=N\c2ccc(C(C)C)cc2)cc(OC)c1OC`, the GI50 in the experiment on OVCAR-4, in the experiment with A549, in the experiment on TK-10, in the experiment on EKVX, with 786-0 and in the experiment on OVCAR-8 was > 100 µM (inactive) throughout. Moreover, the GI50 with HOP-92 is > 88.3 µM (inactive); in the experiment on SNB-19, > 100 µM (inactive); with UACC-257 it was > 100 µM (inactive); in the experiment on HT-29 it was > 100 µM (inactive); in the experiment with OVCAR-3, > 100 µM (inactive); with MOLT-4, > 100 µM (inactive). Moreover, the GI50 in the experiment on SW-620 is > 37 µM (inactive); with NCI-H23 it was > 100 µM (inactive); in the experiment on RPMI-8226 it was > 42 µM (inactive); in the experiment on SNB-75, 98.4 µM (inactive); in the experiment with SK-MEL-2, > 100 µM (inactive).

For `CCC12C=CCN3CC[C@]4(C(=C(C(=O)OC)[C@@H]1Nc1ccn(C5OC(COC(C)=O)C(OC(C)=O)C5OC(C)=O)c(=O)n1)Nc1ccccc14)C32` (stereo not given in full), the GI50 was 1.72 µM (inactive) in the experiment on OVCAR-4; 5.9 µM (inactive) in the experiment on A549; 4.93 µM (inactive) with TK-10; 5.81 µM (inactive) with EKVX; 4.54 µM (inactive) in the experiment on 786-0; 5.16 µM (inactive) in the experiment on OVCAR-8. The GI50 in the experiment on HOP-92 is 4.31 µM (inactive); in the experiment on SNB-19, 4.73 µM (inactive); in the experiment on UACC-257 it was 1.26 µM (inactive); in the experiment on HT-29, 4.8 µM (inactive); in the experiment with OVCAR-3, 4.37 µM (inactive); with MOLT-4 it was 6.58 µM (inactive). Besides, the GI50 was 4.66 µM (inactive) with SW-620; 1.62 µM (inactive) in the experiment with NCI-H23; 5.46 µM (inactive) with RPMI-8226; 3.95 µM (inactive) with SNB-75; 2.39 µM (inactive) with SK-MEL-2.

On to `CCOC(=O)C1=C(C)NC(=O)NC1c1ccc(OC)cc1OC` (stereo not given), for which the GI50 in the experiment on A549, with TK-10, with EKVX, in the experiment with 786-0, in the experiment on OVCAR-8 and in the experiment on HOP-92 was > 100 µM (inactive) in each case. Also, the GI50 with SNB-19, with UACC-257, in the experiment on HT-29, with OVCAR-3, in the experiment on MOLT-4 and in the experiment with SW-620 was > 100 µM (inactive) each time. Further, the GI50 was > 100 µM (inactive) with NCI-H23, 79.1 µM (inactive) with RPMI-8226, > 100 µM (inactive) with SNB-75 and > 100 µM (inactive) with SK-MEL-2.

These data come from ChEMBL document CHEMBL1201862, “PubChem BioAssay data set” (2004).
